From publication PMC9415638, “Discovery of novel thiazolyl-pyrazolines as dual EGFR and VEGFR-2 inhibitors endowed with in vitro antitumor activity towards non-small lung cancer” (Journal of Enzyme Inhibition and Medicinal Chemistry, 2022)

What was measured:
[1] = test system: BT-549 breast cancer cells; assay: Anti-proliferative MTT assay; assay type: cell-based; conditions: Homo sapiens, 24 h, read-out: % Growth inhibition ± SEM BT-549
Description: (§1) To evaluate the anti-proliferative activity of the synthesised thiazolyl-pyrazoline derivatives (7a–7d, 10a–10d, and 13a–13f), a preliminary in vitro one dose (10 µM) anticancer assay was performed. Nine cell lines derived from five tumour subpanels were examined; leukaemia (K562 and KG-1a), breast (MCF-7, BT-549 and HCC70), lung (A549 and H441), colon (HCT116) and liver (HepG2) cancer cell lines. The compounds were added at a single concentration (10 µM) and the cultures were incubated for 24 h, then the per cent growth inhibition (%GI) was calculated.
(§2) Human leukaemia (K562 and KG-1a), breast (MCF-7, BT-549 and HCC70), lung (A549, H441, NCI-H1650 and NCI-H1975), colon (HCT116), liver (HepG2) cancer cell lines and WI-38 human lung fibroblast cell line were obtained from the American Type Culture Collection (ATCC; Manassas, VA) and were cultured in their suitable media containing 10% foetal bovine serum (FBS; Sigma-Aldrich) in a humidified atmosphere with 5% CO2 at 37 °C. Gefitinib and vandetanib were purchased from Sigma-Aldrich. All chemicals used in this study were analytical or cell-culture grade.
(§3) Cytotoxicity was measured using the MTT assay. Human leukaemia (K562 and KG-1a), breast (MCF-7, BT-549 and HCC70), lung (A549, H441, NCI-H1650 and NCI-H1975), colon (HCT116), liver (HepG2) cancer cell lines and WI-38 human lung fibroblast cell line were plated at a density of 1 × 10^4 cells per well in 96-well plates overnight and then treated with the compounds. After 24 h treatment, 20 μL of MTT solution (2 mg/mL in phosphate-buffered saline [PBS]) was added to each well and the cells were cultured for another 4 h at 37 °C. The medium was aspirated and 150 μL DMSO was added to solubilise MTT formazan crystals. The plates were then shaken, and the optical density was determined at 570 nm using an ELISA plate reader (Model 550, Bio-Rad, Hercules, CA). At least three independent experiments were performed. The IC50 values were calculated using GraphPad Prism 5 (Version 5.01, GraphPad Software, San Diego, CA).

[2] = test system: HCC70 breast cancer cells; assay: Anti-proliferative MTT assay; assay type: cell-based; conditions: Homo sapiens, 24 h, read-out: % Growth inhibition ± SEM HCC70
Description: as §1, §2, §3

[3] = test system: HCT116 colon cancer cells; assay: Anti-proliferative MTT assay; assay type: cell-based; conditions: Homo sapiens, HCT-116, 24 h, read-out: % Growth inhibition ± SEM HCT116
Description: as §1, §2, §3

HepG2 liver cancer cells = assay: Anti-proliferative MTT assay; assay type: cell-based; conditions: Homo sapiens, 24 h, read-out: % Growth inhibition ± SEM HepG2
Description: as §1, §2, §3

K562 leukaemia cells = assay: Anti-proliferative MTT assay; assay type: cell-based; conditions: Homo sapiens, 24 h, read-out: % Growth inhibition ± SEM K562
Description: as §1, §2, §3

KG-1a leukaemia cells = assay: Anti-proliferative MTT assay; assay type: cell-based; conditions: Homo sapiens, 24 h, read-out: % Growth inhibition ± SEM KG-1a
Description: as §1, §2, §3

[4] = test system: MCF-7 breast cancer cells; assay: Anti-proliferative MTT assay; assay type: cell-based; conditions: Homo sapiens, MCF7, 24 h, read-out: % Growth inhibition ± SEM MCF-7
Description: as §1, §2, §3

[5] = test system: NCI-H1650 cells (EGFR exon19 deletion delE746-A750); assay: MTT assay on EGFR-mutated NSCLC cells; assay type: cell-based; conditions: Homo sapiens
Description: (§4) All chemicals used in this study were analytical or cell-culture grade.
(§5) Cytotoxicity was measured using the MTT assay. […] The medium was aspirated and 150 μL DMSO was added to solubilise MTT formazan crystals. The plates were then shaken, and the optical density was determined at 570 nm using an ELISA plate reader (Model 550, Bio-Rad, Hercules, CA). At least three independent experiments were performed.

[6] = test system: NCI-H1975 cells (EGFR L858R/T790M); assay: MTT assay on EGFR-mutated NSCLC cells; assay type: cell-based; conditions: Homo sapiens, EGFR L858R/T790M double mutation
Description: as §4, §5

p-EGFR = assay: Western blotting in A549 cells; assay type: cell-based, human; conditions: Western blot, vs untreated control
Text: (§6) Figure 3. […] (B) The relative protein expression level of p-EGFR normalised with total EGFR was quantified by the Image J software (C) The relative protein expression level of p-VEGFR-2 normalised with total VEGFR-2. The values are expressed as the mean ± SEM based on three different experiments. ***p < 0.001 indicate a significant difference compared with control.
(§7) The protein extraction and quantification were done as previously described.

p-VEGFR-2 = assay: Western blotting in A549 cells; assay type: cell-based, human; conditions: Western blot, vs untreated control
Text: as §6, §7

A549 lung cancer cells = assay: Anti-proliferative MTT assay; conditions: Homo sapiens, A549, 24 h; for inhibition at 10 µM: read-out: % Growth inhibition ± SEM A549; for IC50: read-out: IC50 (µM) ± SEM A549
TEK = TEK (Homo sapiens, UniProt Q02763); assay: Kinase selectivity profiling, Z'-LYTE FRET
CLK1 = CLK1 (Homo sapiens, UniProt P49759); assay: Kinase selectivity profiling, Z'-LYTE FRET
CDK5 = CDK5 (Homo sapiens, UniProt Q00535); assay: Kinase selectivity profiling, Z'-LYTE FRET
Chain of CDK5 (Q00535 whole entry): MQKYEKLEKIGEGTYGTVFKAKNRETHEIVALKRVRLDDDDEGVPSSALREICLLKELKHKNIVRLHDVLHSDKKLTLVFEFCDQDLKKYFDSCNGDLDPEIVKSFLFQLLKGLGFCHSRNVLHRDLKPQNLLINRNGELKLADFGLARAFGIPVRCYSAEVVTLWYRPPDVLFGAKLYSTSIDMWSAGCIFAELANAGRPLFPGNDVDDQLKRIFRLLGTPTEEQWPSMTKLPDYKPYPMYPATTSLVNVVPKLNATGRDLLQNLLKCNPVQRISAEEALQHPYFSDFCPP
Chain of CDK5 (Q15078 whole entry partner): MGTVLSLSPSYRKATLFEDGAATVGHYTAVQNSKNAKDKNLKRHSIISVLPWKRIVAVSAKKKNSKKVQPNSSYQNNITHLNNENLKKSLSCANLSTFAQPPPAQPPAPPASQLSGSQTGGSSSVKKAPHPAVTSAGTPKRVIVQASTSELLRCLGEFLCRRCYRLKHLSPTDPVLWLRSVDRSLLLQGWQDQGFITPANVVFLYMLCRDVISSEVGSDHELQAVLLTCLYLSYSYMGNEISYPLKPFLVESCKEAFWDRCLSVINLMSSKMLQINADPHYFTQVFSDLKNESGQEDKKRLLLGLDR

Chain of CLK1 (P49759 whole entry): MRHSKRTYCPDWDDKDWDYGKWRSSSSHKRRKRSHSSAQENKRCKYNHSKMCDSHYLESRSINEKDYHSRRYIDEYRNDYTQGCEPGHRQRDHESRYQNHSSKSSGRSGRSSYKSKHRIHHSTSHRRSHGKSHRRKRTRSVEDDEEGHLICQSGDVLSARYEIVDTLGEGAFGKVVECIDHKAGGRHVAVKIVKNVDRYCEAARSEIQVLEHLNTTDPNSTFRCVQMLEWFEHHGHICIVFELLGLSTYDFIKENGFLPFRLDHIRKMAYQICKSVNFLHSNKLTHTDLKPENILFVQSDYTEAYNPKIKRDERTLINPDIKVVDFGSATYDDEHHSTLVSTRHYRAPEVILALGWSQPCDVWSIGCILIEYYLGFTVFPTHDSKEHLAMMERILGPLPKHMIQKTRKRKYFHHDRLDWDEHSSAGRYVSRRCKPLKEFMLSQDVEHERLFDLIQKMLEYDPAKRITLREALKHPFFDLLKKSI
Chain of TEK (Q02763 23-1124): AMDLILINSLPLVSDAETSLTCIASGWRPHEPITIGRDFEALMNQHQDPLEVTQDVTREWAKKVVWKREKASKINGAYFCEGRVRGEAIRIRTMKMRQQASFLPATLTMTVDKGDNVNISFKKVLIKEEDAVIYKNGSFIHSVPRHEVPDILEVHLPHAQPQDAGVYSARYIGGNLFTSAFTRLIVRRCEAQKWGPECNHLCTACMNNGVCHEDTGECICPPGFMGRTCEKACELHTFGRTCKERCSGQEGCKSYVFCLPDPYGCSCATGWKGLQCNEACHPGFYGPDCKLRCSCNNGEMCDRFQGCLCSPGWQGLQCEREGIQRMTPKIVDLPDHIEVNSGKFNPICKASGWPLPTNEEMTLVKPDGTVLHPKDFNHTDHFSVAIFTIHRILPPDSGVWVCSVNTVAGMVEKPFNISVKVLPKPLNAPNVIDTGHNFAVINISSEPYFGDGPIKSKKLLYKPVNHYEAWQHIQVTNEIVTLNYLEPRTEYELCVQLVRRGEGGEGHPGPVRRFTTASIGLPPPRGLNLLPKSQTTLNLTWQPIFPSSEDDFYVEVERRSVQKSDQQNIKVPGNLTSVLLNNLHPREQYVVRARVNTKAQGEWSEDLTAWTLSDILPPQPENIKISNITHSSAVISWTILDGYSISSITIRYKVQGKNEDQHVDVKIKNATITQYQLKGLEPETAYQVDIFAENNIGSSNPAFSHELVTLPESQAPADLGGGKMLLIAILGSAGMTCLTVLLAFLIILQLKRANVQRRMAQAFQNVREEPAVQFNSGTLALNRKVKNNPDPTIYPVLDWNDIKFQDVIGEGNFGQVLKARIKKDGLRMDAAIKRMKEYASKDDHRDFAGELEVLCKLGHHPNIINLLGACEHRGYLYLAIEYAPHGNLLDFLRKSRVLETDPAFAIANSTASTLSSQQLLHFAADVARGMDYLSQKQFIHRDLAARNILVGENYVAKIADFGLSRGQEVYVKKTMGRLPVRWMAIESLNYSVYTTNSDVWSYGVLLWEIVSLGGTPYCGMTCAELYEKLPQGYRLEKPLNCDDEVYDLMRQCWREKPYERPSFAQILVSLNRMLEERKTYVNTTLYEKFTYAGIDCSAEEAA

Row | IC50 [5] [µM] | IC50 [6] [µM] | IC50 (A549 lung cancer cells) [µM] | IC50 (TEK) [µM] | IC50 (CLK1) [µM] | IC50 (CDK5) [µM] | Structure (SMILES) | inhibition at 10 µM [1] [%] | inhibition at 10 µM [2] [%] | inhibition at 10 µM [3] [%] | inhibition at 10 µM (HepG2 liver cancer cells) [%] | inhibition at 10 µM (K562 leukaemia cells) [%] | inhibition at 10 µM (KG-1a leukaemia cells) [%] | inhibition at 10 µM [4] [%] | protein expression level of p-EGFR (p-EGFR) | protein expression level of p-VEGFR-2 (p-VEGFR-2) | inhibition at 10 µM (A549 lung cancer cells) [%]
1 | 5.7 ± 0.5 | 6.2 ± 0.9 | 4.2 ± 0.8 | > 2 | 1.07 ± 0.054 | 1.14 ± 0.02 | CCOC(=O)c1sc(N2N=C(c3ccc(Cl)cc3Cl)CC2c2ccc(OC)cc2)nc1C (centres unmarked) [Compound 10b, Ethyl-2-(3-(2,4-dichlorophenyl)-5-(4-methoxyphenyl)-4,5-dihydro-1H-pyrazol-1-yl)-4-methylthiazole-5-carboxylate] | 47.2 ± 4.9 | 41.5 ± 2.1 | 37.7 ± 3.9 | 50.6 ± 2.2 | 54.2 ± 3.8 | 31 ± 2.5 | 48.5 ± 2.3 | significantly downregulated | significantly downregulated | 88.3 ± 4.9
2 | 3.5 ± 0.2 | 4.4 ± 0.6 | 2.9 ± 0.2 | > 2 | 0.798 ± 0.019 | 0.993 ± 0.015 | COc1ccc(C2CC(c3ccc(Cl)cc3Cl)=NN2c2nc(C)c(C(=O)Nc3ccccc3)s2)cc1OC (centres unmarked) [Compound 10d, 2-(3-(2,4-Dichlorophenyl)-5-(3,4-dimethoxyphenyl)-4,5-dihydro-1H-pyrazol-1-yl)-4-methyl-N-phenylthiazole-5-carboxamide] | 40.1 ± 2 | 54.1 ± 2.8 | 56.5 ± 2 | 65.5 ± 3.9 | 60.2 ± 2.3 | 57.2 ± 3.4 | 60.9 ± 4.3 | significantly downregulated | significantly downregulated | 95.3 ± 5.3
